Assays:
Assay in all cases: KINOMEscan competitive binding, whole panel
panel of 203 kinases [1] = molecular target: T1, panel of 203 kinases (Homo sapiens, UniProt Q9H1R3); details: 10 µM, n=1; kinase MYLK2; read-out: Percent inhibition MYLK2
T1 construct: purchased DiscoverX (KINOMEscan)
Procedure, shortened: (§1)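 Read-out is the amount of kinase still captured on an immobilized ATP-site probe after exposure to test compound, expressed as percentage inhibition.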

panel of 203 kinases [2] = molecular target: T2, panel of 203 kinases (Homo sapiens, UniProt Q96D53); details: 10 µM, n=1; kinase ADCK4; read-out: Percent inhibition ADCK4
T2 construct: purchased DiscoverX (KINOMEscan)
T2 sequence (Q96D53 1-544): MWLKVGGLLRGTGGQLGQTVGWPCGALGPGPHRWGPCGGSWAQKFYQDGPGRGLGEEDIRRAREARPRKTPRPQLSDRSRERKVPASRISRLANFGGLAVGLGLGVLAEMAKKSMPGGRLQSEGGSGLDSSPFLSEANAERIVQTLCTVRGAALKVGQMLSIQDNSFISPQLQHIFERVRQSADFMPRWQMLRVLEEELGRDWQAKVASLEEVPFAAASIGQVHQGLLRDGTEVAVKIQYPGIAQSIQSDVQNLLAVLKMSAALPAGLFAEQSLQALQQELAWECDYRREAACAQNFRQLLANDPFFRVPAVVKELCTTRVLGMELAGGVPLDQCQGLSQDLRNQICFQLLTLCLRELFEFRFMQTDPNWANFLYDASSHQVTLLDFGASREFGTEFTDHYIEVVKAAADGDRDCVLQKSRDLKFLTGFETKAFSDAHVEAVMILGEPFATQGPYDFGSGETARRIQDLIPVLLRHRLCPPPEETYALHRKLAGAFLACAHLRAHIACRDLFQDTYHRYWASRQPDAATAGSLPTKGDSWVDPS
Procedure, shortened: as §1

panel of 203 kinases [3] = molecular target: T3, panel of 203 kinases (Homo sapiens, UniProt Q9Y6R4); details: 10 µM, n=1; kinase MAP3K4; read-out: Percent inhibition MAP3K4
T3 construct: purchased DiscoverX (KINOMEscan)
Procedure, shortened: as §1

panel of 203 kinases [4] = molecular target: T4, panel of 203 kinases (Homo sapiens, UniProt Q96GD4); details: 10 µM, n=1; kinase AURKB; read-out: Percent inhibition AURKB
T4 construct: purchased DiscoverX (KINOMEscan)
Procedure, shortened: as §1

panel of 203 kinases [5] = molecular target: T5, panel of 203 kinases (Homo sapiens, UniProt P29323); details: 10 µM, n=1; kinase EPHB2; read-out: Percent inhibition EPHB2
T5 construct: purchased DiscoverX (KINOMEscan)
T5 sequence (P29323 19-1055): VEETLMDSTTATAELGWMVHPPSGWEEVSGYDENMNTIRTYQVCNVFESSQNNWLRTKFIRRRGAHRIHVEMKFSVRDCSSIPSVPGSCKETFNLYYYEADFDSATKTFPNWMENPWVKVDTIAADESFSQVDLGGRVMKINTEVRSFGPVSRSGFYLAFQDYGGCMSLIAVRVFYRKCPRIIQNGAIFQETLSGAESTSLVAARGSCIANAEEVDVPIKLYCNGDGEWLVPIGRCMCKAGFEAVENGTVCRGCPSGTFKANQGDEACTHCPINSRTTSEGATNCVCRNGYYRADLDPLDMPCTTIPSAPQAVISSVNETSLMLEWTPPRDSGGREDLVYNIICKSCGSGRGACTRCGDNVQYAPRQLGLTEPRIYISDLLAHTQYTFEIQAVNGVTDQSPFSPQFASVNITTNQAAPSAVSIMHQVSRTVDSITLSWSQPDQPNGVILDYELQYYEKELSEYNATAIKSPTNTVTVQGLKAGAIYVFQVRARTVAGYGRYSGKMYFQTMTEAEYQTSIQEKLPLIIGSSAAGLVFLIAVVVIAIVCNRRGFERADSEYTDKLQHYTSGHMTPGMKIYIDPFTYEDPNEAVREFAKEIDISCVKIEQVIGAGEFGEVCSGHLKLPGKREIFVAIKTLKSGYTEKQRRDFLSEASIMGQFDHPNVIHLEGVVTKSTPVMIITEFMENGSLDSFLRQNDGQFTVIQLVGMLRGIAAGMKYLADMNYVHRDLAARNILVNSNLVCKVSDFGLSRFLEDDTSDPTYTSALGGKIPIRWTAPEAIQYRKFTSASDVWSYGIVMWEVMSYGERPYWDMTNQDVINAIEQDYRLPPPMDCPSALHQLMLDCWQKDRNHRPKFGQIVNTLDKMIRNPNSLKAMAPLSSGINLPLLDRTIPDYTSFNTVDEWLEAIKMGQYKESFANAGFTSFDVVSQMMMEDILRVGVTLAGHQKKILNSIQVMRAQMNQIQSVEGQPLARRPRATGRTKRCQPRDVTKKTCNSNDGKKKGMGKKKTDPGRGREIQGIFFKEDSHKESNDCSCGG
Procedure, shortened: as §1

panel of 203 kinases [6] = molecular target: T6, panel of 203 kinases (Homo sapiens, UniProt P28482); details: 10 µM, n=1; kinase ERK2; read-out: Percent inhibition ERK2
T6 construct: purchased DiscoverX (KINOMEscan)
Procedure, shortened: as §1

panel of 203 kinases [7] = molecular target: T7, panel of 203 kinases (Homo sapiens, UniProt P54756); details: 10 µM, n=1; kinase EPHA5; read-out: Percent inhibition EPHA5
T7 construct: purchased DiscoverX (KINOMEscan)
Procedure, shortened: as §1

panel of 203 kinases [8] = molecular target: T8, panel of 203 kinases (Homo sapiens, UniProt P22455); details: 10 µM, n=1; kinase FGFR4; read-out: Percent inhibition FGFR4
T8 construct: purchased DiscoverX (KINOMEscan)
Procedure, shortened: as §1

panel of 203 kinases [9] = molecular target: T9, panel of 203 kinases (Homo sapiens, UniProt Q8IU85); details: 10 µM, n=1; kinase CAMK1D; read-out: Percent inhibition CAMK1D
T9 construct: purchased DiscoverX (KINOMEscan)
Procedure, shortened: as §1

panel of 203 kinases [10] = molecular target: T10, panel of 203 kinases (Homo sapiens, UniProt Q8NI60); details: 10 µM, n=1; kinase ADCK3; read-out: Percent inhibition ADCK3
T10 construct: purchased DiscoverX (KINOMEscan)
Procedure, shortened: as §1

panel of 203 kinases [11] = molecular target: T11, panel of 203 kinases (Homo sapiens, UniProt Q5VT25); details: 10 µM, n=1; kinase MRCKA; read-out: Percent inhibition MRCKA
T11 construct: purchased DiscoverX (KINOMEscan)
Procedure, shortened: as §1

panel of 203 kinases [12] = molecular target: T12, panel of 203 kinases (Homo sapiens, UniProt Q13557); details: 10 µM, n=1; kinase CAMK2D; read-out: Percent inhibition CAMK2D
T12 construct: purchased DiscoverX (KINOMEscan)
Procedure, shortened: as §1

panel of 203 kinases [13] = molecular target: T13, panel of 203 kinases (Homo sapiens, UniProt Q9UM73); details: 10 µM, n=1; kinase ALK; read-out: Percent inhibition ALK
T13 construct: purchased DiscoverX (KINOMEscan)
Procedure, shortened: as §1

panel of 203 kinases [14] = molecular target: T14, panel of 203 kinases (Homo sapiens, UniProt Q96RR4); details: 10 µM, n=1; kinase CAMKK2; read-out: Percent inhibition CAMKK2
T14 construct: purchased DiscoverX (KINOMEscan)
Procedure, shortened: as §1

T9 sequence (Q8IU85 whole entry): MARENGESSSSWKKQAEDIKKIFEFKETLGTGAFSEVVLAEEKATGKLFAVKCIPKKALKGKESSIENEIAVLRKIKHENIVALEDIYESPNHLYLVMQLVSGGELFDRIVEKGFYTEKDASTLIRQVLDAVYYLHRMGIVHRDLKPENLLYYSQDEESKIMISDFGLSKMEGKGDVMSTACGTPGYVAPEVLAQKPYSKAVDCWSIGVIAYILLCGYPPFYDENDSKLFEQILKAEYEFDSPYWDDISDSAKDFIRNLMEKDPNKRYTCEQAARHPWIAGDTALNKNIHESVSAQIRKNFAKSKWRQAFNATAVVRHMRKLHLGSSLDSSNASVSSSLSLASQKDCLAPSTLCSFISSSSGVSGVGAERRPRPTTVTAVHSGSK
T10 sequence (Q8NI60 163-647): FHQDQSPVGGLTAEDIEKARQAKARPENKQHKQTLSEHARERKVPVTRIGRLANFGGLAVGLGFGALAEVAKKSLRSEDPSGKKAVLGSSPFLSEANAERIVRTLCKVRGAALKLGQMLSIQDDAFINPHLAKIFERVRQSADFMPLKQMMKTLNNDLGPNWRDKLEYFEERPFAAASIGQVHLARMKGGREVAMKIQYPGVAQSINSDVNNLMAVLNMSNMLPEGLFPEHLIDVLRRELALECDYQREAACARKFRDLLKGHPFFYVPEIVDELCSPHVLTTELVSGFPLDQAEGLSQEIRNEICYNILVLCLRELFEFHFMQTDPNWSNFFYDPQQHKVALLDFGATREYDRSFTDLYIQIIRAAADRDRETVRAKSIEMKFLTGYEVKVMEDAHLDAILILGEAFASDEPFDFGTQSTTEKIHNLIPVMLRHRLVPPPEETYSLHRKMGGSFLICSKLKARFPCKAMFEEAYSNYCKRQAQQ
T11 sequence (Q5VT25 whole entry): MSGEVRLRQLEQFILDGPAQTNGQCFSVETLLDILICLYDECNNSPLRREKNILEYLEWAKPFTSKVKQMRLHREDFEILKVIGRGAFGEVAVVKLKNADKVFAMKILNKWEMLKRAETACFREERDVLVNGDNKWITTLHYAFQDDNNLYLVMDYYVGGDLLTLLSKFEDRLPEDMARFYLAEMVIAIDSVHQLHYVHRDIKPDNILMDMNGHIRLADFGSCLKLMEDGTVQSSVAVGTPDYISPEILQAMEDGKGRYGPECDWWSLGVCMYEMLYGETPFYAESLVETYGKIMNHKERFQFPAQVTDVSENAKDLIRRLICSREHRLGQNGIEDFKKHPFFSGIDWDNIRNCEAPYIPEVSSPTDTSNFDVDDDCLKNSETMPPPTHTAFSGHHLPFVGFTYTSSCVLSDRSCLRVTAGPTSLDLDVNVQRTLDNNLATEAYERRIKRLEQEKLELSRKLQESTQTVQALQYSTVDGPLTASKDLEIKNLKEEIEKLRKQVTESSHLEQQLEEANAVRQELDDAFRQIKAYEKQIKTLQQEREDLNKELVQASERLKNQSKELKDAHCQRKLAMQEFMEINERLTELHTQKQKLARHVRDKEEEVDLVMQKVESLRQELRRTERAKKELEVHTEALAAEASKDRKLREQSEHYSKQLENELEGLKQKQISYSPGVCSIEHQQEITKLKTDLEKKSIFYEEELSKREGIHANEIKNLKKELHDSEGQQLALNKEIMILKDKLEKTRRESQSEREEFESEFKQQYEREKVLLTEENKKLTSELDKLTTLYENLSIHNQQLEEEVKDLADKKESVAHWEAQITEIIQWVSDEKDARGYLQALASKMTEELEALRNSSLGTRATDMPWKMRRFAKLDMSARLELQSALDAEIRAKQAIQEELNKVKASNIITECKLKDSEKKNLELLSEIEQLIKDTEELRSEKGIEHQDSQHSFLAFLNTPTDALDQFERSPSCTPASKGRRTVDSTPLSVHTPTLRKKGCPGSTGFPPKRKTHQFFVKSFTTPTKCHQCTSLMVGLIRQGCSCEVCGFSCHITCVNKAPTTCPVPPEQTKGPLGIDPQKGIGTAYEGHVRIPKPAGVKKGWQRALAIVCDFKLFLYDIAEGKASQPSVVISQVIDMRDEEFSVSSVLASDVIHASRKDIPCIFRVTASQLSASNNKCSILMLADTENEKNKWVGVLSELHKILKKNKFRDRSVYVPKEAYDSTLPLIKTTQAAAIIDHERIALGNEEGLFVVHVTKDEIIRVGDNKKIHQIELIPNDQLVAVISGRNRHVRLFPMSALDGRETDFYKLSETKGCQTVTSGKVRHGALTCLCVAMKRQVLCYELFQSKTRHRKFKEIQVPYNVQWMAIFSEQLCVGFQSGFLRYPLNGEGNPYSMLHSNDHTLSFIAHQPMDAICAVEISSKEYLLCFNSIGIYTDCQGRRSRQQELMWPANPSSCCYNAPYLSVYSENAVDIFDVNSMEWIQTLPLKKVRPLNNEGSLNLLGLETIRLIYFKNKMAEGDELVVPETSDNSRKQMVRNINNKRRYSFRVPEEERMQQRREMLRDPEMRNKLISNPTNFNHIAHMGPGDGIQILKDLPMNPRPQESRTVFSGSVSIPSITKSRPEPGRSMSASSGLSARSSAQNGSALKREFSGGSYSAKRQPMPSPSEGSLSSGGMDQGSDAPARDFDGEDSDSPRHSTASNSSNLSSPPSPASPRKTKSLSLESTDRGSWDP
T1 sequence (Q9H1R3 whole entry): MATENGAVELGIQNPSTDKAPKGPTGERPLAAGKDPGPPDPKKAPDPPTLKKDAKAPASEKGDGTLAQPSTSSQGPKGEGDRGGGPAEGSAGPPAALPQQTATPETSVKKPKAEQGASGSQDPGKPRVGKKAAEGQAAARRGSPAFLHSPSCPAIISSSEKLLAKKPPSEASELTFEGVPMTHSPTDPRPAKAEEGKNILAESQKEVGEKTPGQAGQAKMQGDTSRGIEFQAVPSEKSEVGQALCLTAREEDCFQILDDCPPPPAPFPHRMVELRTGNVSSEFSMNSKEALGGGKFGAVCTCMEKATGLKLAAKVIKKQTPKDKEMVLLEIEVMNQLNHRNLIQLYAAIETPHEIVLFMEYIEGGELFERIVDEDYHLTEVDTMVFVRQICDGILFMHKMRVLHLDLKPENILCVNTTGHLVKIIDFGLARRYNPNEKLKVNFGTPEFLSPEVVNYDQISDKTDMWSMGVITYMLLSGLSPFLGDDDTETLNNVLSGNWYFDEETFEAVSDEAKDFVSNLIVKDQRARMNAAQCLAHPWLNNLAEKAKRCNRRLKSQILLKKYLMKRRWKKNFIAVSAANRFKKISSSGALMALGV
T6 sequence (P28482 whole entry): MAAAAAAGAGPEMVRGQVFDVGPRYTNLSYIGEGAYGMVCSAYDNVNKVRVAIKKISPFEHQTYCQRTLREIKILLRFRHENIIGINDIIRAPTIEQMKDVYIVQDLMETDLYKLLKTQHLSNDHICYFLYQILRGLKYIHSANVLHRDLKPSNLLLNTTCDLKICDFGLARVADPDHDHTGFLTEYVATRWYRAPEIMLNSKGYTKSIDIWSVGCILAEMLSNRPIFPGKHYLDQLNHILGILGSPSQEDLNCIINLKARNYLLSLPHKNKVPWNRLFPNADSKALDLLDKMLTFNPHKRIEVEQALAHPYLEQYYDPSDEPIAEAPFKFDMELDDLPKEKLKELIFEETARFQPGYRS
T4 sequence (Q96GD4 whole entry): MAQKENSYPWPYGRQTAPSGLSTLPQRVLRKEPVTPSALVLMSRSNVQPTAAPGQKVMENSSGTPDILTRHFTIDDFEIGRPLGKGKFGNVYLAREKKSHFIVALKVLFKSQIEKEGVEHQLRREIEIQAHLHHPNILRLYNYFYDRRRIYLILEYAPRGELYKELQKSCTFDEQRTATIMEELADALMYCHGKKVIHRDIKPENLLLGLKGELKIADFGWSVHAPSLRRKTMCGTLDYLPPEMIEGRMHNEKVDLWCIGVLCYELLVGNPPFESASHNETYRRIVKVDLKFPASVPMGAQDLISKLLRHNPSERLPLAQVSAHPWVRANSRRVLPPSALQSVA
T12 sequence (Q13557 whole entry): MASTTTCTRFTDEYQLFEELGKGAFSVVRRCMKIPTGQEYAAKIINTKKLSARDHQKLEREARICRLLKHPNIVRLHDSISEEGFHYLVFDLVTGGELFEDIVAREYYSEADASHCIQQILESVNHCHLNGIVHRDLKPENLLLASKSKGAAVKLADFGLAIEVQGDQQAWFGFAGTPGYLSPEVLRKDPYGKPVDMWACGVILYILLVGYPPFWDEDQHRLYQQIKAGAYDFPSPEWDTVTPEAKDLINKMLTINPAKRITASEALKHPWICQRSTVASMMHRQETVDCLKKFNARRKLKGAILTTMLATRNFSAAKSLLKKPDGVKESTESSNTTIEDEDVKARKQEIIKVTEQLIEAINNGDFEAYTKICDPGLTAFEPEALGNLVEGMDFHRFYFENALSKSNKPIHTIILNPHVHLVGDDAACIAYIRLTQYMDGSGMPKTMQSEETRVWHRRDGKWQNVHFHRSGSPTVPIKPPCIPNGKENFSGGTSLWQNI
T14 sequence (Q96RR4 whole entry): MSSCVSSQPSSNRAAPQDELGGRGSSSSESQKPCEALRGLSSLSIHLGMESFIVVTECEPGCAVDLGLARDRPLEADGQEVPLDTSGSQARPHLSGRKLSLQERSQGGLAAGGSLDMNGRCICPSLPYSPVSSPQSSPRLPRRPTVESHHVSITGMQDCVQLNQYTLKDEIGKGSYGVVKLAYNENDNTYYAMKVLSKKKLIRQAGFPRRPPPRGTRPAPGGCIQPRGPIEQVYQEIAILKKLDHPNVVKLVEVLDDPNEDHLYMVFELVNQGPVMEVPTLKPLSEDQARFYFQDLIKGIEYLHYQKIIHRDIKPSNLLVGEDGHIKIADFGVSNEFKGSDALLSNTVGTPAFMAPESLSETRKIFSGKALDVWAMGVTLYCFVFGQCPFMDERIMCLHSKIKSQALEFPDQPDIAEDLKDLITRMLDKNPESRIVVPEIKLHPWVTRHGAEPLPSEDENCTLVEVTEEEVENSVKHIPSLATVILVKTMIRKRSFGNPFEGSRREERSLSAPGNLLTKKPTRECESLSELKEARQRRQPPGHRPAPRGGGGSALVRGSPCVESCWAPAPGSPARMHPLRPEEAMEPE

SMILES	inhibition at 10 µM (panel of 203 kinases [1]) [%]	inhibition at 10 µM (panel of 203 kinases [2]) [%]	inhibition at 10 µM (panel of 203 kinases [3]) [%]	inhibition at 10 µM (panel of 203 kinases [4]) [%]	inhibition at 10 µM (panel of 203 kinases [5]) [%]	inhibition at 10 µM (panel of 203 kinases [6]) [%]	inhibition at 10 µM (panel of 203 kinases [7]) [%]	inhibition at 10 µM (panel of 203 kinases [8]) [%]	inhibition at 10 µM (panel of 203 kinases [9]) [%]	inhibition at 10 µM (panel of 203 kinases [10]) [%]	inhibition at 10 µM (panel of 203 kinases [11]) [%]	inhibition at 10 µM (panel of 203 kinases [12]) [%]	inhibition at 10 µM (panel of 203 kinases [13]) [%]	inhibition at 10 µM (panel of 203 kinases [14]) [%]
CN1CCN(c2ccc(Nc3nccc(-c4cnn5ncccc45)n3)cc2C#N)CC1 [Compound 1]	96.8	98.6	91	88.5	0	100	80.2	0	98.3	93.7	0	96.5	99.1	98
COc1ccc(Nc2nccc(-c3cnn4ncccc34)n2)cc1 [Compound 2]	80.5	94.5	0	93.3	0	99.2	91.8	0	0	99.5	0	79.5	94.8	96.3
Cc1ccc(O)cc1Nc1ccnc(Nc2cccc(C(N)=O)c2)n1 [Compound 3]	83.2	100	0	82.8	100	0	100	82.4	0	0	0	0	0	0
Cc1ccc(O)cc1N(C)c1ccnc(Nc2cccc(S(N)(=O)=O)c2)n1 [Compound 4]	0	100	0	79.5	100	64	100	0	70	91.1	87	0	0	0
Fc1cccc(COc2ccc(Nc3ncnc4c3CN(CCN3CCOCC3)CC4)cc2Cl)c1 [Compound 6]	0	0	0	0	0	0	0	0	0	0	0	0	0	0
COc1cc(Nc2nccc(-c3sc(N)nc3-c3cccc(NC(=O)c4c(F)cccc4F)c3)n2)cc(OC)c1OC [Compound 7]	97	100	99.6	100	99.4	100	100	100	91.8	100	100	0	0	0
C[C@@H](Oc1cc(-c2cnc3ccccn23)sc1C(N)=O)c1ccccc1Cl [Compound 8]	66.5	0	0	87.3	0	80.6	0	0	0	0	0	0	0	81.2
c1ccc(COc2cccc(-c3ccnc4[nH]ccc34)c2)cc1 [Compound 9]	0	0	0	0	0	0	0	0	0	0	0	0	0	0
Clc1ccc(Nc2ncc(-c3ccccc3)s2)cc1 [Compound 10]	0	0	0	0	0	0	0	0	0	0	0	0	0	0
Nc1ncc2c(-c3ccncc3)c[nH]c2n1 [Compound 11]	84.9	0	0	65.6	62.6	0	0	0	0	0	0	0	0	0

Reference: paper PMC9927415, “Tyrosine Kinase Inhibitors Display Potent Activity against Cryptosporidium parvum” (Microbiology Spectrum, 2022)
